Data reported in US20250268884A1, “Deuterated Domperidone for Treating Gastroparesis” (CinDome Pharma, Inc., priority 2022, published 2025).

System: adults with idiopathic or diabetic gastroparesis
Assay: Safety: adverse events, laboratory values, vital signs, Phase 2a
[1] = 5 mg BID (N = 9), Safety Population

Method: Safety was evaluated through assessments of Aes, vital signs, physical examinations, clinical laboratory evaluations (including prolactin), and ECG findings. Additionally, a single, optional PGx blood sample may have been collected at any time during the subject's participation in the study.
Safety variables included Aes, clinical laboratory results (including prolactin), vital signs, ECGs, and physical examination findings.

[2H]c1c([2H])c([2H])c2c([nH]c(=O)n2CCCN2CCC(n3c(=O)[nH]c4cc(Cl)ccc43)CC2)c1[2H] [Deudomperidone, 1-{3-[4-(5-chloro-2-oxo-2,3-dihydro-1H-1,3-benzodiazol-1-yl)piperidin-1yl]propyl}-2,3-dihydro(4,5,6,7-D4)-1H-1,3-benzodiazol-2-one]
11.1%: Subjects with any TEAEs, % (5 mg BID (N = 9)) | Subjects with any study drug-related TEAE, % (5 mg BID (N = 9)) | Any TEAEs, % of subjects [1]
1 TEAE: TEAEs reported (5 mg BID) | study drug-related TEAEs reported (5 mg BID)
(10.0) %: Study drug-related TEAE Gastrointestinal disorders, % (10 mg BID (N = 30)) | TEAE Diarrhoea, % (10 mg BID (N = 30))
(3.3) %: Study drug-related TEAE Blood creatine phosphokinase increased, % (10 mg BID (N = 30)) | Study drug-related TEAE Cardiac disorders, % (10 mg BID (N = 30)) | Study drug-related TEAE Ear and labyrinth disorders, % (10 mg BID (N = 30)) | Study drug-related TEAE Investigations, % (10 mg BID (N = 30)) | Study drug-related TEAE Nausea, % (10 mg BID (N = 30)) | Study drug-related TEAE Palpitations, % (10 mg BID (N = 30)) | Study drug-related TEAE Tinnitus, % (10 mg BID (N = 30)) | TEAE Blood creatine phosphokinase increased, % (10 mg BID (N = 30)) | TEAE Cardiac disorders, % (10 mg BID (N = 30)) | TEAE Decreased appetite, % (10 mg BID (N = 30)) | TEAE Ear and labyrinth disorders, % (10 mg BID (N = 30)) | TEAE Electrocardiogram QT prolonged, % (10 mg BID (N = 30)) | TEAE Hypoglycaemia, % (10 mg BID (N = 30))
13.3%: Subjects with any study drug-related TEAE, % (10 mg BID (N = 30))
1 (11.1%) subjects (%): subjects with study drug-related TEAEs (5 mg BID) | subjects who experienced a TEAE (5 mg BID, Safety Population)
(11.1) %: Study drug-related TEAE Abdominal pain lower, % (5 mg BID (N = 9)) | Study drug-related TEAE Gastrointestinal disorders, % (5 mg BID (N = 9)) | TEAE Abdominal pain lower, % (5 mg BID (N = 9)) | TEAE Gastrointestinal disorders, % (5 mg BID (N = 9)) | Any Aes, % of subjects [1] | Any TEAEs by maximum severity: Mild, % of subjects [1] | Any study drug-related TEAEs by maximum severity: Mild, % of subjects [1] | Any study drug-related TEAEs, % of subjects [1]
(0.0) %: Study drug-related TEAE Blood creatine phosphokinase increased, % (5 mg BID (N = 9)) | Study drug-related TEAE Cardiac disorders, % (5 mg BID (N = 9)) | Study drug-related TEAE Diarrhoea, % (5 mg BID (N = 9)) | Study drug-related TEAE Ear and labyrinth disorders, % (5 mg BID (N = 9)) | Study drug-related TEAE Electrocardiogram QT prolonged, % (5 mg BID (N = 9)) | Study drug-related TEAE Headache, % (5 mg BID (N = 9)) | Study drug-related TEAE Investigations, % (5 mg BID (N = 9)) | Study drug-related TEAE Nausea, % (5 mg BID (N = 9)) | Study drug-related TEAE Nervous system disorders, % (5 mg BID (N = 9)) | Study drug-related TEAE Palpitations, % (5 mg BID (N = 9)) | Study drug-related TEAE Tinnitus, % (5 mg BID (N = 9)) | TEAE Arthralgia, % (5 mg BID (N = 9)) | TEAE Back pain, % (5 mg BID (N = 9)) | TEAE Blood creatine phosphokinase increased, % (5 mg BID (N = 9)) | TEAE Cardiac disorders, % (5 mg BID (N = 9)) | TEAE Constipation, % (5 mg BID (N = 9)) | TEAE Decreased appetite, % (5 mg BID (N = 9)) | TEAE Diarrhoea, % (5 mg BID (N = 9)) | TEAE Dyspepsia, % (5 mg BID (N = 9)) | TEAE Ear and labyrinth disorders, % (5 mg BID (N = 9)) | TEAE Electrocardiogram QT prolonged, % (5 mg BID (N = 9)) | TEAE Headache, % (5 mg BID (N = 9)) | TEAE Hypoglycaemia, % (5 mg BID (N = 9)) | TEAE Infections and infestations, % (5 mg BID (N = 9)) | TEAE Investigations, % (5 mg BID (N = 9)) | TEAE Metabolism and nutrition disorders, % (5 mg BID (N = 9)) | TEAE Musculoskeletal and connective tissue disorders, % (5 mg BID (N = 9)) | TEAE Nausea, % (5 mg BID (N = 9)) | TEAE Nervous system disorders, % (5 mg BID (N = 9)) | TEAE Palpitations, % (5 mg BID (N = 9)) | TEAE Sinusitis, % (5 mg BID (N = 9)) | TEAE Tinnitus, % (5 mg BID (N = 9)) | TEAE Vomiting, % (5 mg BID (N = 9)) | Any TEAEs by maximum severity: Moderate, % of subjects [1] | Any TEAEs by maximum severity: Severe, % of subjects [1] | Any TEAEs leading to death, % of subjects [1] | Any TEAEs leading to discontinuation, % of subjects [1] | Any serious TEAEs, % of subjects [1] | Any study drug-related TEAEs by maximum severity: Moderate, % of subjects [1] | Any study drug-related TEAEs by maximum severity: Severe, % of subjects [1] | Any study drug-related TEAEs leading to discontinuation, % of subjects [1] | Any study drug-related serious TEAEs, % of subjects [1] | Study drug-related TEAE Abdominal pain lower, % (10 mg BID (N = 30)) | Study drug-related TEAE Electrocardiogram QT prolonged, % (10 mg BID (N = 30)) | Study drug-related TEAE Headache, % (10 mg BID (N = 30)) | Study drug-related TEAE Nervous system disorders, % (10 mg BID (N = 30)) | TEAE Abdominal pain lower, % (10 mg BID (N = 30)) | TEAE Arthralgia, % (10 mg BID (N = 30)) | TEAE Back pain, % (10 mg BID (N = 30)) | TEAE Constipation, % (10 mg BID (N = 30)) | TEAE Dyspepsia, % (10 mg BID (N = 30)) | TEAE Headache, % (10 mg BID (N = 30)) | TEAE Infections and infestations, % (10 mg BID (N = 30)) | TEAE Musculoskeletal and connective tissue disorders, % (10 mg BID (N = 30))
(6.7) %: Study drug-related TEAE Diarrhoea, % (10 mg BID (N = 30)) | TEAE Investigations, % (10 mg BID (N = 30)) | TEAE Metabolism and nutrition disorders, % (10 mg BID (N = 30))
11: Subjects with any TEAEs, e (events) (10 mg BID (N = 30))
6: Subjects with any study drug-related TEAE, e (events) (10 mg BID (N = 30))
(13.3) %: TEAE Gastrointestinal disorders, % (10 mg BID (N = 30))
20.0%: Subjects with any TEAEs, % (10 mg BID (N = 30))
6 TEAEs: study drug-related TEAEs reported (10 mg BID)
4 (13.3%) subjects (%): subjects with study drug-related TEAEs (10 mg BID)
1 subject each: other TEAE: abdominal pain lower (5 mg BID) | other study drug-related TEAE: abdominal pain lower (5 mg BID) | other TEAEs, each: nausea, vomiting, blood creatine phosphokinase increased, decreased appetite, palpitations, tinnitus (10 mg BID) | other study drug-related TEAEs, each: nausea, blood creatine phosphokinase increased, palpitations, tinnitus (10 mg BID)
1 (3.3%) subjects (%): TEAE electrocardiogram QT prolonged (10 mg BID) | TEAE hypoglycaemia (10 mg BID)
3 (10.0%) subjects (%): TEAE diarrhoea (10 mg BID)
2 (6.7%) subjects (%): study drug-related TEAE diarrhoea (10 mg BID)
11 TEAEs: TEAEs reported (10 mg BID)
1: Subjects with any TEAEs, e (events) (5 mg BID (N = 9)) | Subjects with any study drug-related TEAE, e (events) (5 mg BID (N = 9)) | Any Aes, n subjects [1] | Any TEAEs by maximum severity: Mild, n subjects [1] | Any TEAEs, e (number of events) [1] | Any TEAEs, n subjects [1] | Any study drug-related TEAEs by maximum severity: Mild, n subjects [1] | Any study drug-related TEAEs, n subjects [1]
0: Any TEAEs by maximum severity: Moderate, n subjects [1] | Any TEAEs by maximum severity: Severe, n subjects [1] | Any TEAEs leading to death, n subjects [1] | Any TEAEs leading to discontinuation, n subjects [1] | Any serious TEAEs, n subjects [1] | Any study drug-related TEAEs by maximum severity: Moderate, n subjects [1] | Any study drug-related TEAEs by maximum severity: Severe, n subjects [1] | Any study drug-related TEAEs leading to discontinuation, n subjects [1] | Any study drug-related serious TEAEs, n subjects [1]
